Experimental findings from patent US9539261B2, “Methods and compositions for stimulating neurogenesis and inhibiting neuronal degeneration” (Neuronascent, Inc., priority 2005, dated 2017) are described below.

For assay [1], the system named is mature neurons. In words: inhibition of beta amyloid peptide toxicity in mature neurons. The assay is classed as cell-based, human. The method, then: In measuring the ability of inhibiting apoptosis, mature neurons (3-4 weeks following initiation of differentiation) were treated with staurosporine to induce apoptosis. A low concentration of staurosporine (10-100 nM) or beta amyloid 1-42 peptide at 1-10 μM or peptide beta amyloid 25-35 at 10-75 μM concentration was used to stimulate apoptosis. At the same time as treating with staurosporine, the neurons were treated with vehicle or one of the test agents. […] Each compound's inhibitory ability was compared with vehicle and staurosporine.
Necrosis of the mature neurons was initiated using beta amyloid 1-42 peptide at 1-10 μM or peptide beta amyloid 25-35 at 10-75 μM concentration. This synthetic peptide was of the same length naturally found in AD brain. Because lactate dehydrogenase (LDH) is released from cells when the plasma membrane is impaired, the cell loss was quantified by the amount of LDH released into the media following a 24-48 hr treatment. The ability of neurogenic agents to reduce the LDH release induced by beta amyloid, versus vehicle control was used as the measurement of inhibition of neuron degeneration.

For assay [2], the system named is human neuronal progenitors cells. In words: in vitro neurogenesis test (MAP-2 staining, neuron number). The assay is classed as cell-based. To be noted: MAP-2 staining on day 11; human neuronal progenitors in differentiation media. The method, then:
The in vitro neurogenesis test was performed using human neuronal progenitors cells. By way of background, the human neuronal progenitor cells can be cultured in media and have the potential to produce mature functional neurons. The neurogenesis factor in the culture media can promote the number of the progenitor cells which differentiate into neurons. Indeed, it is a widely accepted in vitro model to test a chemical's neurogenetic property.
Cells were obtained as human neuronal progenitors from a commercial source and were grown for up to three passages or at any time differentiated to potentially produce mature functional neurons in culture. Following two passages to expand the cells, progenitors were seeded into multi-well microplates and the media were changed to differentiation media (minus serum and mitogen). Within 2 hrs of this media change, a vehicle, positive control or test compound were added to each well. Also, they were added with every further media change (50% volume change every other day). Control wells contained cells and vehicle (0.2% DMSO in DMEM/F12). […]
The cells were stained using MAP-2, a neuronal marker, on day 11. Then, each test compound was assessed for the ability to promote an increase in neuron number and compared with the positive control, leukemia inhibitory factor (LIF).

The test system of assay [3] is mature neurons. In words: LDH assay of neuron degeneration due to hydrogen peroxide toxicity. The note with it: hydrogen peroxide for 8 hrs, vehicle control = 0% inhibition, n = 5 wells. The class given is cell-based, human.

As to “4-Benzo-8-aza-bicyclo[3.2.1]oct-3-yl)-3-(2-chloro-phenyl)-thiourea”, the “% Inhibition of beta amyloid peptide toxicity” value in the assay with mature neurons [1] is 68%. Take `COCCN(Cc1cc2ccc(C)c(C)c2nc1Cl)C(=O)Nc1ccccc1OC` [1-(2-Chloro-7,8-dimethyl-quinolin-3-ylmethyl)-1-(2-methoxy-ethyl)-3-(2-methoxy-phenyl)-urea]: the “increase in the neuron numbers compared with the vehicle control, % of Control” value in assay [2] is recorded as 132 % of Control.

In the case of `COc1ccccc1NC(=S)N1CCCN(c2nc3cc(C)cc(C)c3cc2C#N)CC1` [4-(3-Cyano-5,7-dimethyl-quinolin-2-yl)-[1,4]diazepane-1-carbothioic acid (2-methoxy-phenyl)-amide], the “% Inhibition of neuron degeneration due to hydrogen peroxide toxicity” value in the assay on mature neurons [3] came to 50%. Also, the “increase in the neuron numbers compared with the vehicle control, % of Control” value in assay [2] is 110 % of Control. In addition, in the assay on mature neurons [1], the “% Inhibition of beta amyloid peptide toxicity” value was 84%.
